# Assay results reported in US12083227B2, “Solid pharmaceutical formulations for treating endometriosis, uterine fibroids, polycystic ovary syndrome or adenomyosis” (priority 2017, dated 2024).
# Tests used:
# [1] = tested on: tumors in rat; experiment: 2-year carcinogenicity study in rats; format: in vivo
# Description: The rat tumors were identified as being species-specific and of negligible relevance to humans. This conclusion is based on a follow-on thyroid and hepatic effects-related investigative study performed to document the possibility that thyroid and liver tumors may be specific to rat and occurred via induction of hepatic drug metabolizing enzymes at the high dose.
# [2] = tested on: fatigue in women with moderate to severe endometriosis-related pain; experiment: Phase III study of fatigue (PROMIS Fatigue SF-6a) in endometriosis pain; format: in vivo, human
# Experimental: A Phase III study was conducted to assess the effects of elagolix for clinically meaningful reductions in pain and other symptoms. Data provided examined the impact of elagolix on fatigue in women with moderate to severe endometriosis-related pain. […] Fatigue was assessed using the Patient Reported Outcome Measurement Information System (PROMIS®), Fatigue Short Form (SF) 6a. Six items assessed a range of self-reported symptoms from mild, subjective feelings of tiredness to overwhelming, sustained sense of exhaustion that likely decreases one's ability to execute daily activities and function normally. The domain was divided into the experience of fatigue (frequency, duration and intensity) and impact of fatigue on physical, mental and social activities. All items assessed fatigue over the previous seven days. Responses to each question was filed on a 5-item Likert scale: 1—“Not at all”; 2—“A little bit”; 3—“Somewhat”; 4—“Quite a bit”; and 5—“Very much.” The questionnaire was administered at baseline and months 1, 3, and 6. Lower scores indicated less fatigue. Post-hoc, Fatigue SF-6a raw scores were converted to T-scores. The T-score rescales […] the raw score into a standardized score such that the general population has a mean of 50 and a standard deviation (SD) of 10. Analysis: […] ANCOVA controlled for treatment as main effect. Baseline Fatigue SF-6a T-score included as a covariate.
# [3] = tested on: women with endometriosis; experiment: Phase 3 studies EM-I and EM-II with extension studies EM-III and EM-IV (pooled efficacy, pharmacodynamics, safety); format: in vivo, human; conditions: for Depressed Mood, depression, depressive symptoms and or tearfulness: Placebo 17 (2.3); for Mood altered, mood swings: Placebo 25 (3.4); for Completed Suicide: EM-1 and EM-2; for patients with a Z-score below the normal lower bound of −2.0: following 12 months of treatment
# Description: Each placebo-controlled study assessed the reduction in endometriosis-associated pain over 6 months of treatment. More than 75 percent of women who completed Study EM-I and EM-II enrolled in the extension studies for an additional 6 month treatment period. Subjects were followed for up to 12 months post-treatment. Women in these studies also provided a daily self-assessment of their endometriosis pain using the Numeric Rating Scale (NRS), on a scale ranging from 0 (no pain) to 10 (worst pain ever). […] The effects of elagolix on menstrual bleeding were evaluated for up to 12 months using an electronic daily diary where subjects classified their flow of menstrual bleeding (if present in the last 24 hours) as spotting, light, medium, or heavy. […] The population age range was 18-49 years old. Women who completed six months of treatment and met eligibility criteria continued treatment in two blinded six-month extension studies, for a total treatment duration of up to 12 months. In the placebo-controlled and extension clinical studies, BMD was measured by DXA. Changes observed in BMD at other anatomical sites (femoral neck, total hip) were generally smaller than lumbar spine.
# [4] = tested on: tumors in mouse; experiment: 2-year carcinogenicity study in mice; format: in vivo; conditions: any dose
smiles,measurement,setting,value
"COc1cccc(-c2c(C)n(Cc3c(F)cccc3C(F)(F)F)c(=O)n(C[C@H](NCCCC(=O)O)c3ccccc3)c2=O)c1F [elagolix, 4-((R)-2-[5-(2-fluoro-3-methoxy-phenyl)-3-(2-fluoro-6-trifluoromethyl-benzyl)-4-methyl-2,6-dioxo-3,6-dihydro-2H-pyrimidin-1-yl]-1-phenyl-ethylamino)-butyric acid]",carcinogenicity: tumors,"[1]; 2-year, high dose, considered species-specific",increase in thyroid (male and female) and liver (males only) tumors
same,margin of safety at the high dose,"[1]; both, in vivo, 2 years",13 fold
same,reduction in fatigue (PROMIS Fatigue SF-6a T-Score),"[2]; 200 mg, as early as Month 1",statistically significant reduction
same,PROMIS Fatigue SF-6a T-Score relative to placebo,"[2]; both doses (150 mg QD, 200 mg BID) at Months 3 and 6",Statistically significant reductions
same,Suicidal ideation,[3]; 150 mg Once Daily (N = 475),1 (0.2) N (%)
same,"Depressed Mood, depression, depressive symptoms and or tearfulness",[3]; 150 mg Once Daily (N = 475),13 (2.7) N (%)
same,"Mood altered, mood swings",[3]; 150 mg Once Daily (N = 475),25 (5.7) N (%)
same,Numeric Rating Scale (NRS) scores of endometriosis pain,"[3]; 150 mg QD and 200 mg BID vs placebo at Month 3 and Month 6, p<0.001",significant reduction
same,percentage of days per month of the opioid or naproxen rescue medication use,[3]; 200 mg BID compared to placebo,significant reduction
same,Suicidal ideation,[3]; 200 mg Twice Daily (N = 477),1 (0.2) N (%)
same,"Depressed Mood, depression, depressive symptoms and or tearfulness",[3]; 200 mg Twice Daily (N = 477),29 (6.1) N (%)
same,"Mood altered, mood swings",[3]; 200 mg Twice Daily (N = 477),25 (5.2) N (%)
same,Completed Suicide,[3]; 150 mg Once Daily (N = 475),1 (0.2) N (%)
same,Completed Suicide,[3]; 200 mg Twice Daily (N = 477),0 N (%)
same,"resumption of menses after stopping, % of women","[3]; after 6 months of 150 mg once daily, within 1 month",59%
same,"resumption of menses after stopping, % of women","[3]; after 6 months of 150 mg once daily, within 2 months",87%
same,"resumption of menses after stopping, % of women","[3]; after 6 months of 150 mg once daily, within 6 months",95%
same,"resumption of menses after stopping, % of women","[3]; after 6 months of 200 mg twice daily, within 1 month",60%
same,"resumption of menses after stopping, % of women","[3]; after 6 months of 200 mg twice daily, within 2 months",88%
same,"resumption of menses after stopping, % of women","[3]; after 6 months of 200 mg twice daily, within 6 months",97%
same,"resumption of menses after stopping, % of women","[3]; after 12 months of 150 mg once daily, within 1 month",77%
same,"resumption of menses after stopping, % of women","[3]; after 12 months of 150 mg once daily, within 2 months",95%
same,"resumption of menses after stopping, % of women","[3]; after 12 months of 150 mg once daily, within 6 months",98%
same,"resumption of menses after stopping, % of women","[3]; after 12 months of 200 mg twice daily, within 1 month",55%
same,"resumption of menses after stopping, % of women","[3]; after 12 months of 200 mg twice daily, within 2 months",91%
same,"resumption of menses after stopping, % of women","[3]; after 12 months of 200 mg twice daily, within 6 months",96%
same,"recovery of BMD at lumbar spine, total hip and femoral neck","[3]; both treatment groups, post-treatment months 6 and 12",progressive recovery of BMD
same,patients with a Z-score below the normal lower bound of −2.0,[3]; 150 mg daily dose,no patient
same,patients with a Z-score below the normal lower bound of −2.0,[3]; 200 mg BID,less than 1%
same,percentage of days in which rescue opioid medication was taken,"[3]; pooled analysis of two phase 3 trials, 150 QD and 200 BID vs placebo",significant reduction
same,mean percent daily pill counts (rescue opioid),"[3]; pooled analysis, 200 mg BID vs placebo",significant reduction
same,carcinogenicity: tumors,[4],no increase in tumors
